Assay results as given in ChEMBL document CHEMBL1671865, “Clostridium difficile infections in a Canadian tertiary care hospital before and during a regional epidemic associated with the BI/NAP1/027 strain” (2008).
Converted amounts (≈) assume the structure as drawn.

How the values were obtained:
Type in all cases: functional
[1] = tested on: Clostridioides difficile; assay: Antimicrobial activity against Clostridium difficile harboring ribotype 001 by CLSI agar dilution method
[2] = tested on: Clostridioides difficile; assay: Antimicrobial activity against Clostridium difficile harboring other ribotypes by CLSI agar dilution method
[3] = tested on: Clostridioides difficile; assay: Antimicrobial activity against Clostridium difficile harboring ribotype 027 by CLSI agar dilution method

## CCC[C@@H]1C[C@@H](C(=O)N[C@@H]([C@H]2O[C@H](SC)[C@H](O)[C@@H](O)[C@H]2O)[C@H](C)Cl)N(C)C1 [CLINDAMYCIN]
[1]
  MIC: > 64 mg/L
  MIC50: > 64 mg/L
  MIC90: > 64 mg/L
[2]
  MIC50: 4 mg/L (≈ 9.41 µM)
  MIC90: 8 mg/L (≈ 18.8 µM)
[3]
  MIC50: 4 mg/L (≈ 9.41 µM)
  MIC90: 8 mg/L (≈ 18.8 µM)

## COc1c(N2CCNC(C)C2)c(F)cc2c(=O)c(C(=O)O)cn(C3CC3)c12 (stereo not drawn) [GATIFLOXACIN]
[1]
  MIC50: 32 mg/L (≈ 85.2 µM)
  MIC90: 32 mg/L (≈ 85.2 µM)
[2]
  MIC50: 2 mg/L (≈ 5.33 µM)
  MIC90: > 32 mg/L
[3]
  MIC50: > 32 mg/L
  MIC90: > 32 mg/L

## Cc1ncc([N+](=O)[O-])n1CCO [METRONIDAZOLE]
[1]
  MIC50: 0.5 mg/L (≈ 2.92 µM)
  MIC90: 0.5 mg/L (≈ 2.92 µM)
[2]
  MIC50: 0.25 mg/L (≈ 1.46 µM)
  MIC90: 0.5 mg/L (≈ 2.92 µM)
[3]
  MIC50: 1 mg/L (≈ 5.84 µM)
  MIC90: 1 mg/L (≈ 5.84 µM)

## CCS(=O)(=O)CCn1c([N+](=O)[O-])cnc1C [TINIDAZOLE]
[1]
  MIC50: 0.5 mg/L (≈ 2.02 µM)
  MIC90: 0.5 mg/L (≈ 2.02 µM)
[2]
  MIC50: 0.25 mg/L (≈ 1.01 µM)
  MIC90: 0.5 mg/L (≈ 2.02 µM)
[3]
  MIC50: 1 mg/L (≈ 4.04 µM)
  MIC90: 1 mg/L (≈ 4.04 µM)

## CN[C@H](CC(C)C)C(=O)N[C@H]1C(=O)N[C@@H](CC(N)=O)C(=O)N[C@H]2C(=O)N[C@H]3C(=O)N[C@H](C(=O)N[C@H](C(=O)O)c4cc(O)cc(O)c4-c4cc3ccc4O)[C@H](O)c3ccc(c(Cl)c3)Oc3cc2cc(c3O[C@@H]2O[C@H](CO)[C@@H](O)[C@H](O)[C@H]2O[C@H]2C[C@](C)(N)[C@H](O)[C@H](C)O2)Oc2ccc(cc2Cl)[C@H]1O [VANCOMYCIN]
[1]
  MIC50: 1 mg/L (≈ 0.69 µM)
  MIC90: 1 mg/L (≈ 0.69 µM)
[2]
  MIC50: 1 mg/L (≈ 0.69 µM)
  MIC90: 1 mg/L (≈ 0.69 µM)
[3]
  MIC: 0.5 mg/L (≈ 0.345 µM)
  MIC50: 0.5 mg/L (≈ 0.345 µM)
  MIC90: 2 mg/L (≈ 1.38 µM)

## RAMOPLANIN
[1]
  MIC50: 0.25 mg/L
  MIC90: 0.25 mg/L
[2]
  MIC50: 0.25 mg/L
  MIC90: 0.25 mg/L
[3]
  MIC50: 0.12 mg/L
  MIC90: 0.25 mg/L
